Test results: ChEMBL document CHEMBL1126540, “Synthesis and evaluation of 3-carboxymethyl steroids as inhibitors of human prostatic steroid 5-reductase” (Bioorg Med Chem Lett, 1993)

Assay: Inhibition of Human prostatic Steroid 5-alpha-reductase
Conditions: read-out: Ki app

Molecule `CC(C)N(C(=O)[C@H]1CC[C@H]2[C@@H]3CCc4cc(C(=O)C(=O)O)ccc4[C@H]3CC[C@]12C)C(C)C` has a Ki of 150 nM.

Work on `CC(C)N(C(=O)[C@H]1CCC2C3CC=C4C=C(C(=O)O)CC[C@]4(C)C3CC[C@@]21C)C(C)C` (some centres undefined) yielded a Ki of 7 nM.

With `CC(C)N(C(=O)[C@H]1CC[C@H]2[C@@H]3CCc4cc(C(F)(F)C(=O)O)ccc4[C@H]3CC[C@]12C)C(C)C` the Ki was 40 nM.

With `CC(C)N(C(=O)[C@H]1CC[C@H]2[C@@H]3CCc4cc(CC(=O)O)ccc4[C@H]3CC[C@]12C)C(C)C` the Ki was 20 nM.

For `CC(C)N(C(=O)[C@H]1CC[C@H]2[C@@H]3CC[C@H]4C/C(=C/C(=O)O)CC[C@]4(C)[C@H]3CC[C@]12C)C(C)C`, the Ki was > 5000 nM.

For `CC(C)N(C(=O)[C@H]1CC[C@H]2[C@@H]3CCc4cc(CCC(=O)O)ccc4[C@H]3CC[C@]12C)C(C)C`, the Ki was 290 nM.

In the case of `CC(C)N(C(=O)[C@H]1CCC2C3CCC4=C/C(=C\C(=O)O)CC[C@]4(C)C3CC[C@@]21C)C(C)C` (some centres undefined), the Ki is reported as > 5000 nM.

In the case of `CC(C)N(C(=O)[C@H]1CCC2C3CC[C@H]4C=C(C(=O)O)CC[C@]4(C)C3CC[C@@]21C)C(C)C` (some centres undefined), the Ki is reported as 30 nM.

For `CC(C)N(C(=O)[C@H]1CCC2C3CCC4=C/C(=C/C(=O)O)CC[C@]4(C)C3CC[C@@]21C)C(C)C` (some centres undefined), the Ki was > 5000 nM.

With `CC(C)N(C(=O)[C@H]1CCC2C3CC[C@H]4CC(CC(=O)O)=CC[C@]4(C)C3CC[C@@]21C)C(C)C` (some centres undefined) the Ki was 40 nM.

Work on `CC(C)N(C(=O)[C@H]1CCC2C3CC=C4C=C(CC(=O)O)CC[C@]4(C)C3CC[C@@]21C)C(C)C` (some centres undefined) yielded a Ki of 450 nM.

With `CC(C)N(C(=O)[C@H]1CCC2C3CC[C@H]4C=C(CC(=O)O)CC[C@]4(C)C3CC[C@@]21C)C(C)C` (some centres undefined) the Ki was 85 nM.

Molecule `CC(C)N(C(=O)[C@H]1CC[C@H]2[C@@H]3CCc4cc(CP(=O)(O)O)ccc4[C@H]3CC[C@]12C)C(C)C` has a Ki of 740 nM.

With `CC(C)N(C(=O)[C@H]1CC[C@H]2[C@@H]3CCc4cc(CS(=O)(=O)O)ccc4[C@H]3CC[C@]12C)C(C)C` the Ki was > 5000 nM.
